Data from US10004701B2, “Methods and compositions for treating infection” (UNIVERSITY OF ROCHESTER, priority 2012, dated 2018).
Structures can show the parent of a compound that is named as a salt. Where two headings read alike, the source gives them in different places.

What was measured:
Test in all cases: AK assay 384-well format, Prestwick library screening
[1] = system: A. baumannii strain 98-37-09; assay type: cell-based, Acinetobacter baumannii; conditions: 50 μM final drug concentration; for fold induction at 50 µM: Acinetobacter baumannii, 983709, 3 h
[2] = system: P. aeruginosa; assay type: cell-based, Pseudomonas aeruginosa; conditions: 50 μM final drug concentration; for fold induction at 50 µM: Pseudomonas aeruginosa, 3 h
[3] = system: E. cloacae; assay type: cell-based, Enterobacter cloacae; conditions: 50 μM final drug concentration; for fold induction at 50 µM: Enterobacter cloacae, 3 h
[4] = system: S. aureus strain USA300-0114; assay type: cell-based, Staphylococcus aureus; conditions: 50 μM final drug concentration; for fold induction at 50 µM: Staphylococcus aureus, USA300, 3 h
[5] = system: E. coli; assay type: cell-based, Escherichia coli; conditions: 50 μM final drug concentration; for fold induction at 50 µM: Escherichia coli, 3 h
[6] = system: K. pneumoniae; assay type: cell-based, Klebsiella pneumoniae; conditions: 50 μM final drug concentration; for fold induction at 50 µM: Klebsiella pneumoniae, 3 h
[7] = system: E. faecium; assay type: cell-based, Enterococcus faecium; conditions: 50 μM final drug concentration; for fold induction at 50 µM: Enterococcus faecium, 3 h
[8] = 384-well format, cutoff for positive-scoring molecules 3-fold increase
[9] = planktonic, cutoff for positive-scoring molecules 3-fold increase, read-out: AK-based Prestwick Library Screening Results, A. baumannii (fold increase in extracellular AK activity)
[10] = planktonic, cutoff for positive-scoring molecules 3-fold increase, read-out: AK-based Prestwick Library Screening Results, P. aeruginosa (fold increase in extracellular AK activity)
[11] = planktonic, cutoff for positive-scoring molecules 3-fold increase, read-out: AK-based Prestwick Library Screening Results, E. cloacae (fold increase in extracellular AK activity)
[12] = planktonic, cutoff for positive-scoring molecules 3-fold increase, read-out: AK-based Prestwick Library Screening Results, S. aureus (fold increase in extracellular AK activity)
[13] = planktonic, cutoff for positive-scoring molecules 3-fold increase, read-out: AK-based Prestwick Library Screening Results, E. coli (fold increase in extracellular AK activity)
[14] = planktonic, cutoff for positive-scoring molecules 3-fold increase, read-out: AK-based Prestwick Library Screening Results, K. pneumoniae (fold increase in extracellular AK activity)
[15] = planktonic, cutoff for positive-scoring molecules 3-fold increase, read-out: AK-based Prestwick Library Screening Results, E. faecium (fold increase in extracellular AK activity)
[16] = cutoff for positive-scoring molecules 3-fold increase

Iproniazide phosphate
AK-based Prestwick Library Screening Results, A. baumannii (increase in extracellular AK activity) [1, 8]: 0.7
AK-based Prestwick Library Screening Results, P. aeruginosa (increase in extracellular AK activity) [2, 8]: 0.7
AK-based Prestwick Library Screening Results, E. cloacae (increase in extracellular AK activity) [3, 8]: 0.8
AK-based Prestwick Library Screening Results, S. aureus (increase in extracellular AK activity) [4, 8]: 1.0
AK-based Prestwick Library Screening Results, E. coli (increase in extracellular AK activity) [5, 8]: 0.8
AK-based Prestwick Library Screening Results, K. pneumoniae (increase in extracellular AK activity) [6, 8]: 0.7
AK-based Prestwick Library Screening Results, E. faecium (increase in extracellular AK activity) [7, 8]: 1.0

CCOC(=O)[C@H](CCc1ccccc1)N[C@@H](C)C(=O)N1CCC[C@H]1C(=O)O [Enalapril maleate]
fold induction at 50 µM ([1]; planktonic A. baumannii, 384-well, […], read-out: AK-based Prestwick Library Screening Results: A. baumannii (increase in extracellular AK activity)): 1.3
fold induction at 50 µM ([2]; planktonic P. aeruginosa, 384-well, […], read-out: AK-based Prestwick Library Screening Results: P. aeruginosa (increase in extracellular AK activity)): 1.2
fold induction at 50 µM ([3]; planktonic E. cloacae, 384-well, […], read-out: AK-based Prestwick Library Screening Results: E. cloacae (increase in extracellular AK activity)): 1.3
fold induction at 50 µM ([4]; planktonic S. aureus, 384-well, […], read-out: AK-based Prestwick Library Screening Results: S. aureus (increase in extracellular AK activity)): 1.3
fold induction at 50 µM ([5]; planktonic E. coli, 384-well, […], read-out: AK-based Prestwick Library Screening Results: E. coli (increase in extracellular AK activity)): 1.2
fold induction at 50 µM ([6]; planktonic K. pneumoniae, 384-well, […], read-out: AK-based Prestwick Library Screening Results: K. pneumoniae (increase in extracellular AK activity)): 1.2
fold induction at 50 µM ([7]; planktonic E. faecium, 384-well, […], read-out: AK-based Prestwick Library Screening Results: E. faecium (increase in extracellular AK activity)): 1.1

NC(Cn1ccc(=O)c(O)c1)C(=O)O (stereo not drawn) [Mimosine]
fold induction at 50 µM ([1]; planktonic, cutoff for positive 3-fold increase, read-out: AK-based Prestwick Library Screening Results, A. baumannii (fold increase in extracellular AK activity)): 0.9
fold induction at 50 µM ([2]; planktonic, cutoff for positive 3-fold increase, read-out: AK-based Prestwick Library Screening Results, P. aeruginosa (fold increase in extracellular AK activity)): 1.1
fold induction at 50 µM ([3]; planktonic, cutoff for positive 3-fold increase, read-out: AK-based Prestwick Library Screening Results, E. cloacae (fold increase in extracellular AK activity)): 1.5
fold induction at 50 µM ([4]; planktonic, cutoff for positive 3-fold increase, read-out: AK-based Prestwick Library Screening Results, S. aureus (fold increase in extracellular AK activity)): 1.4
fold induction at 50 µM ([5]; planktonic, cutoff for positive 3-fold increase, read-out: AK-based Prestwick Library Screening Results, E. coli (fold increase in extracellular AK activity)): 1
fold induction at 50 µM ([6]; planktonic, cutoff for positive 3-fold increase, read-out: AK-based Prestwick Library Screening Results, K. pneumoniae (fold increase in extracellular AK activity)): 0.9
fold induction at 50 µM ([7]; planktonic, cutoff for positive 3-fold increase, read-out: AK-based Prestwick Library Screening Results, E. faecium (fold increase in extracellular AK activity)): 1

NC(=NCc1ccccc1)NC(=O)c1nc(Cl)c(N)nc1N [Benzamil hydrochloride]
fold induction at 50 µM [1, 9]: 0.6
fold induction at 50 µM [2, 10]: 0.6
fold induction at 50 µM [3, 11]: 0.7
fold induction at 50 µM [4, 12]: 0.7
fold induction at 50 µM [5, 13]: 0.6
fold induction at 50 µM [6, 14]: 0.6
fold induction at 50 µM [7, 15]: 1.1

C[C@]12CC[C@H]3[C@@H](CCC4=CC(=O)CC[C@@]43C)[C@@H]1CC[C@@H]2C(=O)CO [Deoxycorticosterone]
AK-based Prestwick Library Screening Results, A. baumannii (fold increase in extracellular AK activity) [1, 16]: 1.3
AK-based Prestwick Library Screening Results, P. aeruginosa (fold increase in extracellular AK activity) [2, 16]: 1.3
AK-based Prestwick Library Screening Results, E. cloacae (fold increase in extracellular AK activity) [3, 16]: 1.3
AK-based Prestwick Library Screening Results, S. aureus (fold increase in extracellular AK activity) [4, 16]: 1.6
AK-based Prestwick Library Screening Results, E. coli (fold increase in extracellular AK activity) [5, 16]: 1.2
AK-based Prestwick Library Screening Results, K. pneumoniae (fold increase in extracellular AK activity) [6, 16]: 1.2
AK-based Prestwick Library Screening Results, E. faecium (fold increase in extracellular AK activity) [7, 16]: 1.2

NC(N)=NOCC[C@H](N)C(=O)O.O.O=S(=O)(O)O [Canavanine sulfate monohydrate (L,+)]
AK-based Prestwick Library Screening Results, A. baumannii (fold increase in extracellular AK activity) ([1]; planktonic, […]): 1.1
AK-based Prestwick Library Screening Results, P. aeruginosa (fold increase in extracellular AK activity) ([2]; planktonic, […]): 1.1
AK-based Prestwick Library Screening Results, E. cloacae (fold increase in extracellular AK activity) ([3]; planktonic, […]): 1.4
AK-based Prestwick Library Screening Results, S. aureus (fold increase in extracellular AK activity) ([4]; planktonic, […]): 1.6
AK-based Prestwick Library Screening Results, E. coli (fold increase in extracellular AK activity) ([5]; planktonic, […]): 1.2
AK-based Prestwick Library Screening Results, K. pneumoniae (fold increase in extracellular AK activity) ([6]; planktonic, […]): 0.9
AK-based Prestwick Library Screening Results, E. faecium (fold increase in extracellular AK activity) ([7]; planktonic, […]): 1.1

CCCCNc1ccc(C(=O)OCCOCCOCCOCCOCCOCCOCCOCCOCCOC)cc1 [Benzonatate]
fold induction at 50 µM ([1]; 384-well format, cutoff for positive-scoring molecules 3-fold increase, read-out: AK-based Prestwick Library Screening Results, A. baumannii (increase in extracellular AK activity)): 0.7
fold induction at 50 µM ([2]; 384-well format, cutoff for positive-scoring molecules 3-fold increase, read-out: AK-based Prestwick Library Screening Results, P. aeruginosa (increase in extracellular AK activity)): 0.6
fold induction at 50 µM ([3]; 384-well format, cutoff for positive-scoring molecules 3-fold increase, read-out: AK-based Prestwick Library Screening Results, E. cloacae (increase in extracellular AK activity)): 0.7
fold induction at 50 µM ([4]; 384-well format, cutoff for positive-scoring molecules 3-fold increase, read-out: AK-based Prestwick Library Screening Results, S. aureus (increase in extracellular AK activity)): 0.7
fold induction at 50 µM ([5]; 384-well format, cutoff for positive-scoring molecules 3-fold increase, read-out: AK-based Prestwick Library Screening Results, E. coli (increase in extracellular AK activity)): 0.7
fold induction at 50 µM ([6]; 384-well format, cutoff for positive-scoring molecules 3-fold increase, read-out: AK-based Prestwick Library Screening Results, K. pneumoniae (increase in extracellular AK activity)): 0.6
fold induction at 50 µM ([7]; 384-well format, cutoff for positive-scoring molecules 3-fold increase, read-out: AK-based Prestwick Library Screening Results, E. faecium (increase in extracellular AK activity)): 0.8

COc1ccc(C(Cl)=C(c2ccc(OC)cc2)c2ccc(OC)cc2)cc1 [Chlorotrianisene]
fold induction at 50 µM [1, 9]: 0.8
fold induction at 50 µM [2, 10]: 0.8
fold induction at 50 µM [3, 11]: 1.4
fold induction at 50 µM [4, 12]: 0.8
fold induction at 50 µM [5, 13]: 0.9
fold induction at 50 µM [6, 14]: 0.8
fold induction at 50 µM [7, 15]: 1

CNCCCN1c2ccccc2CCc2ccccc21 [Desipramine hydrochloride]
fold induction at 50 µM ([1]; planktonic A. baumannii, cutoff for positive-scoring molecules 3-fold increase, read-out: AK-based Prestwick Library Screening Results, A. baumannii (increase in extracellular AK activity)): 0.7
fold induction at 50 µM ([2]; planktonic P. aeruginosa, cutoff for positive-scoring molecules 3-fold increase, read-out: AK-based Prestwick Library Screening Results, P. aeruginosa (increase in extracellular AK activity)): 0.9
fold induction at 50 µM ([3]; planktonic E. cloacae, cutoff for positive-scoring molecules 3-fold increase, read-out: AK-based Prestwick Library Screening Results, E. cloacae (increase in extracellular AK activity)): 0.8
fold induction at 50 µM ([4]; planktonic S. aureus, cutoff for positive-scoring molecules 3-fold increase, read-out: AK-based Prestwick Library Screening Results, S. aureus (increase in extracellular AK activity)): 0.7
fold induction at 50 µM ([5]; planktonic E. coli, cutoff for positive-scoring molecules 3-fold increase, read-out: AK-based Prestwick Library Screening Results, E. coli (increase in extracellular AK activity)): 0.9
fold induction at 50 µM ([6]; planktonic K. pneumoniae, cutoff for positive-scoring molecules 3-fold increase, read-out: AK-based Prestwick Library Screening Results, K. pneumoniae (increase in extracellular AK activity)): 0.7
fold induction at 50 µM ([7]; planktonic E. faecium, cutoff for positive-scoring molecules 3-fold increase, read-out: AK-based Prestwick Library Screening Results, E. faecium (increase in extracellular AK activity)): 0.8
